Non-standard residues stand in square brackets, D forms with d. Residues, ends and D or L forms follow the SMILES beside them. *: point of attachment. hArg = N=C(N)NCCCC[C@H](N)C(=O)O; Agmatine = N=C(N)NCCCCN*; Nle = CCCC[C@H](N)C(=O)O

In one series the target is Prothrombin (Homo sapiens, UniProt P00734). Kind of series: Inhibition of human thrombin after 1 hr by fluorescence assay.
For `N=C(N)N1CCC(CNC(=O)[C@H](CCCCN)NC(=O)[C@H](CCCCN)NC(=O)Cc2cccc(-c3ccccc3)c2)CC1`, the IC50 (commonly the concentration needed to halve the response being measured) is > 100 µM.

System in another series: not listed separately
Kind of series: Inhibition of Murray Valley encephalitis virus NS2B/NS3 protease using Pyr-RTKR-AMC as substrate after 1 hr by fluorescence assay.
Regarding `CC(=O)N[C@@H](CCCCNC(=N)N)C(=O)N[C@@H](CCCCN)C(=O)NCCCCNC(=N)N` (Ac-[hArg]-Lys-Agmatine), half-maximal inhibition (IC50) required 31.4 µM. `N=C(N)NCCCCNC(=O)[C@H](CCCCN)NC(=O)[C@H](CCCCN)NC(=O)c1ccc2ccccc2c1` had an IC50 of 24 µM. As for `CCCCNC(=O)[C@H](CCCCN)NC(=O)[C@H](CCCCN)NC(C)=O`, the IC50 was > 100 µM. The compound `CC(C)CC(=O)N[C@@H](CCCCN)C(=O)N[C@@H](CCCCN)C(=O)NCCCCNC(=N)N` returned an IC50 of 69.3 µM. Same read-out and setting: the same measure for `CC(C)C(=O)N[C@@H](CCCCN)C(=O)N[C@@H](CCCCN)C(=O)NCCCCNC(=N)N`: 81.7 µM; for `N=C(N)NCCCCNC(=O)[C@H](CCCCN)NC(=O)[C@H](CCCCN)NC(=O)CCc1ccccc1`: 30.7 µM. With `CC(=O)N[C@@H](CCCCN)C(=O)N[C@@H](CCCCNC(=N)N)C(=O)NCCCCNC(=N)N` (Ac-Lys-[hArg]-Agmatine), the IC50 amounted to 79.2 µM. On the same count and under the same terms, to `CCCC[C@H](NC(=O)[C@H](CCCCN)NC(C)=O)C(=O)NCCCCNC(=N)N` (Ac-Lys-[Nle]-Agmatine) belongs > 100 µM; to `N=C(N)NCCCCNC(=O)[C@H](CCCCN)NC(=O)[C@H](CCCCN)NC(=O)c1ccccc1`, 32.3 µM; to `N=C(N)NCCCCNC(=O)[C@H](CCCCN)NC(=O)[C@H](CCCCN)NC(=O)Cc1ccccc1`, 16.3 µM. Still for that read-out and setting: the same measure for `CC(C)(C)C(=O)N[C@@H](CCCCN)C(=O)N[C@@H](CCCCN)C(=O)NCCCCNC(=N)N`: > 100 µM; for `Cc1ccccc1CC(=O)N[C@@H](CCCCN)C(=O)N[C@@H](CCCCN)C(=O)NCCCCNC(=N)N`: 60.5 µM.

Regarding `CC(=O)N[C@@H](CCCCN)C(=O)N[C@@H](CCCCN)C(=O)NN`, the IC50 is > 100 µM. The same measure, in the same setting: to `CC(=O)N[C@@H](CCCCN)C(=O)N[C@@H](CCCCN)C(=O)NCCCCCNC(=N)N` belongs 75.7 µM.

Regarding `N=C(N)NCCCCNC(=O)[C@H](CCCCN)NC(=O)[C@H](CCCCN)NC(=O)Cc1ccc(Cl)cc1`, the IC50 came to 14.1 µM. On the same count and under the same terms, to `N=C(N)NCCCCNC(=O)[C@H](CCCCN)NC(=O)[C@H](CCCCN)NC(=O)Cc1ccc(-c2ccccc2)cc1` belongs 18.4 µM.

`CC(=O)N[C@@H](CCCCN)C(=O)N[C@@H](CCCCN)C(=O)NCCCCCN`: the IC50 is > 100 µM.

Consider `CC(=O)N[C@@H](CCCCN)C(=O)N[C@@H](CCCCN)C(=O)NCCCCNC(N)=O`, for which the half-maximal inhibitory concentration (IC50) was > 100 µM. The same measure, in the same setting: the same measure for `N=C(N)NCCCCNC(=O)[C@H](CCCCN)NC(=O)[C@H](CCCCN)NC(=O)c1cccc2ccccc12`: 28.3 µM.

In turn, `CCC(=O)N[C@@H](CCCCN)C(=O)N[C@@H](CCCCN)C(=O)NCCCCNC(=N)N` displayed an IC50 of 49.1 µM. This IC50 lies about 1.7-fold higher than the previous one. On the same count and under the same terms, to `CCCC[C@H](NC(C)=O)C(=O)N[C@@H](CCCCN)C(=O)NCCCCNC(=N)N` (Ac-[Nle]-Lys-Agmatine) belongs 45.2 µM; to `CC(=O)N[C@@H](CCCCN)C(=O)N[C@@H](CCCCN)C(=O)NCCCNC(=N)N`, > 100 µM; to `CC(=O)N[C@@H](CCCCN)C(=O)N[C@@H](CCCCN)C(=O)NCC1CCN(C(=N)N)CC1`, 9.2 µM. Same read-out and setting: to `N=C(N)NCCCCNC(=O)[C@H](CCCCN)NC(=O)[C@H](CCCCN)NC(=O)Cc1cccc(-c2ccccc2)c1` belongs 9.1 µM; to `N=C(N)N1CCC(CNC(=O)[C@H](CCCCN)NC(=O)[C@H](CCCCN)NC(=O)Cc2cccc(-c3ccccc3)c2)CC1`, 4.9 µM. Compound `N=C(N)NCCCCNC(=O)[C@H](CCCCN)NC(=O)[C@H](CCCCN)NC(=O)Cc1ccccc1Cl` showed an IC50 of 54 µM. As to `Cc1ccc(CC(=O)N[C@@H](CCCCN)C(=O)N[C@@H](CCCCN)C(=O)NCCCCNC(=N)N)cc1`, it took 15.2 µM to reach half-maximal inhibition (IC50). The same measure, in the same setting: to `CC(=O)N[C@@H](CCCCN)C(=O)N[C@@H](CCCCN)C(=O)NCCCCN` belongs > 100 µM; to `CC(=O)N[C@@H](CCCCN)C(=O)N[C@@H](CCCCN)C(=O)NCC#CCNC(=N)N`, 12.7 µM. On the same count and under the same terms, the same measure for `CC(=O)N[C@@H](CCCCN)C(=O)N[C@@H](CCCCN)C(=O)NCCCCNC(=N)N`: 16.8 µM; for `CC(=O)N[C@@H](CCCCN)C(=O)N[C@@H](CCCCN)C(=O)NCCCCCCN`: > 100 µM. On the same count and under the same terms, the same measure for `CC(=O)N[C@@H](CCCCN)C(=O)N[C@@H](CCCCN)C(=O)NC/C=C/CNC(=N)N`: 58.3 µM; for `CC(=O)N[C@@H](CCCCN)C(=O)N[C@@H](CCCCN)C(=O)N[C@H]1CC[C@@H](NC(=N)N)CC1`: > 100 µM; for `Cc1cccc(CC(=O)N[C@@H](CCCCN)C(=O)N[C@@H](CCCCN)C(=O)NCCCCNC(=N)N)c1`: 15.7 µM. Take `CC(=O)N[C@@H](CCCCN)C(=O)N[C@@H](CCCCN)C(=O)NC/C=C\CNC(=N)N`: the IC50 is > 100 µM. Still for that read-out and setting: the same measure for `N=C(N)NCCCCNC(=O)[C@H](CCCCN)NC(=O)[C@H](CCCCN)NC(=O)Cc1cccc(Cl)c1`: 53.9 µM; for `CCCC(=O)N[C@@H](CCCCN)C(=O)N[C@@H](CCCCN)C(=O)NCCCCNC(=N)N`: 50.9 µM.

In the case of `N=C(N)NCCCCNC(=O)[C@H](CCCCN)NC(=O)[C@@H](N)CCCCN`, the IC50 is > 100 µM.

System in another series: not listed separately
Kind of series: Competitive inhibition of Murray Valley encephalitis virus NS2B/NS3 protease using Pyr-RTKR-AMC as substrate after 1 hr by Lineweaver-Burk plot analysis.
In the case of `N=C(N)N1CCC(CNC(=O)[C@H](CCCCN)NC(=O)[C@H](CCCCN)NC(=O)Cc2cccc(-c3ccccc3)c2)CC1`, the Ki – broadly, a measure of affinity in units of concentration, obtained from inhibition or displacement – was 2.5 µM.

System in a further series: not listed separately
Kind of series: Chemical stability of the compound at 100 uM after 2 hrs in presence of MVEV NS2B/NS3 protease. In kind it is physicochemical.
`N=C(N)N1CCC(CNC(=O)[C@H](CCCCN)NC(=O)[C@H](CCCCN)NC(=O)Cc2cccc(-c3ccccc3)c2)CC1`: the Stability result was “Stable”.

These data come from ChEMBL document CHEMBL2424548, “Substrate-based peptidomimetic inhibitors of the Murray Valley encephalitis virus NS2B/NS3 serine protease: a P1-P4 SAR study” (Eur J Med Chem, 2013).
